These results are taken from patent publication US20100323972A1, “NON-IMMUNOSUPPRESSIVE CYCLOSPORIN FOR THE TREATMENT OF MUSCULAR DYSTROPHY” (priority 2008, published 2010).

Entries after “also recorded” stand apart in the source; their conditions may differ.

Assay [1] relates to scgd−/− mice. Kind of assay: Muscle weight-to-tibia length ratios (pseudo-hypertrophy) in treated scgd−/− mice. Format: in vivo. As for the experimental part:
(§1) Different dissected muscles, gastrocnemius, quadriceps, tibialis anterior and heart muscles, were weighed and muscle weight (MW)-to-tibia length (TL) ratios (MW/TL) were determined. Results in FIG. 2(a) and FIG. 2(c) are presented as means±SEM (standard error of the means). A one-way ANOVA was used to compare means among 3 or more independent groups. A Newman-Keuls post hoc test was applied whenever multiple comparisons were conducted using InStat 3.0 (GraphPad software from Science Inc.). Values were considered significant when p<0.05.
In response to the numerous degeneration/regeneration cycles, scgd—/− mice initially presented with hypertrophic skeletal muscles as are seen in subjects suffering from LGMD. […] Reduction of skeletal muscular hypertrophy was about 1.3 fold in gastrocnemius (Gastroc.), quadriceps (Quad.) and tibialis anterior (TA) and about 1.2 fold in heart muscle (Heart) of D-[MeAla]^3-[EtVal]^4-CsA-treated scgd−/− mice compared to vehicle-treated animals.

Assay [2] concerns scgd−/− mice. Kind of assay: Hematoxylin- and eosin-stained histological sections of quadriceps. Format: in vivo. The conditions noted are these: 50 mg/kg/day subcutaneous.
Text: FIG. 2(b) represents reduction of muscle pathology after administration of D-[MeAla]^3-[EtVal]^4-CsA in Scgd−/− mice observed in representative hematoxylin- and eosin-stained sections of quadriceps from wild type (Wt) mice and scgd−/− mice treated with D-[MeAla]^3-[EtVal]^4-CsA. Corresponding vehicle controls are also shown.
as §1
Reduced pathology in the scgd−/− mice treated with D-[MeAla]^3-[EtVal]^4-CsA was also observed in histological slides of quadriceps (FIG. 2(b)).

For assay [3], the system named is scgd−/− mice. Kind of assay: Percentage fibrosis in muscles (hydroxyproline content / trichrome-stained sections). It counts as in vivo. The conditions noted are these: trichrome-stained sections of diaphragm, tibialis anterior, gastrocnemius, quadriceps. The source says: FIG. 2(c) represents reduction of muscle pathology after administration of D-[MeAla]^3-[EtVal]^4-CsA in scgd−/− mice as assessed by quantitation of fibrotic areas in trichrome-stained sections from diaphragm (Diaph.), tibialis anterior (TA), gastrocnemius (Gastroc.), quadriceps (Quad). Assessed were sections from wild type (Wt) mice treated with either vehicle (white bar) or D-[MeAla]^3-[EtVal]^4-CsA (black bar) and from scgd−/− mice treated with either vehicle (gray bar or second to last bar in group) or D-[MeAla]^3-[EtVal]^4-CsA (dotted bar or last bar of group).
Different dissected muscles, gastrocnemius, quadriceps, tibialis anterior and heart muscles, were weighed and muscle weight (MW)-to-tibia length (TL) ratios (MW/TL) were determined. Results in FIG. 2(a) and FIG. 2(c) are presented as means±SEM (standard error of the means). A one-way ANOVA was used to compare means among 3 or more independent groups. […]
Percentage fibrosis was assessed by means of a biochemical assay that quantified hydroxyproline content (Parsons et al., Am. J. Pathol., 2006, 168:1975-1985) in diaphragm (Diaph.), tibialis anterior (TA), gastrocnemius (Gastroc.) and quadriceps (Quad) muscles from wild type and scgd−/− mice treated or not treated with D-[MeAla]^3-[EtVal]^4-CsA.

Assay [4] deals with scgd−/− mice. Kind of assay: Quantitation of the distribution of fiber areas in skeletal muscles. The conditions noted are these: 50 mg/kg/day subcutaneous for 6 weeks; for Fiber area distribution / heterogeneity: 50 mg/kg/day. It counts as in vivo. The source says: FIG. 3(a) represents reduction of fiber area heterogeneity in muscle from scgd−/− mice after the administration of D-[MeAla]^3-[EtVal]^4-CsA as assessed by quantitation of the distribution of fiber areas in tibialis anterior (muscle). The study included wild type (Wt) mice treated with either vehicle (white bar) or D-[MeAla]^3-[EtVal]^4-CsA (black bar) and scgd−/− mice treated with either vehicle (gray bar or second to last bar in group) or D-[MeAla]^3-[EtVal]^4-CsA (dotted bar or last bar of group).
FIG. 3(b) represents reduction of fiber area heterogeneity in muscle from scgd−/− mice after the administration of D-[MeAla]^3-[EtVal]^4-CsA as assessed by quantitation of the distribution of fiber areas in gastrocnemius. Included in the study were wild type (Wt) mice treated with either vehicle (white bar) or D-[MeAla]^3-[EtVal]^4-CsA (black bar) and scgd−/− mice treated with either vehicle (gray bar or second to last bar in group) or D-[MeAla]^3-[EtVal]^4-CsA (dotted bar or last bar of group).
FIG. 3(c) represents reduction of fiber area heterogeneity in muscle from scgd−/− mice after the administration of D-[MeAla]^3-[EtVal]^4-CsA as assessed by quantitation of the distribution of fiber areas in quadriceps muscle. Measurements were carried out on wild type (Wt) mice treated with either vehicle (white bar) or D-[MeAla]^3-[EtVal]^4-CsA (black bar) and scgd−/− mice treated with either vehicle (gray bar or second to last bar in group) or D-[MeAla]^3-[EtVal]^4-CsA (dotted bar or last bar of group).
Scgd−/− mice were administered subcutaneously with either D-[MeAla]^3-[EtVal]^4-CsA at a dose of 50 mg/kg/day or vehicle for 6 weeks. […] The administration of the non-immunosuppressive D-[MeAla]^3-[EtVal]^4-CsA to scgd−/− mice reduced the regeneration rate of the fibers and normalized partially the distribution of small and large fibers.

In assay [5] the test system is mouse model of Duchenne. The settings on record: inhibition of calcineurin; cited from earlier work.

Take “[D-MeAla]^3-[EtVal]^4-CsA [D-[MeAla]^3-[EtVal]^4-CsA]”: the “Reduction of skeletal muscular hypertrophy (MW/TL) compared to vehicle-treated animals” value in assay [1] (gastrocnemius, 50 mg/kg/day subcutaneous, 4 to 10 weeks of age) is “about 1.3 fold”; in assay [1] (quadriceps, 50 mg/kg/day subcutaneous, 4 to 10 weeks of age), “about 1.3 fold”; in assay [1] (tibialis anterior, 50 mg/kg/day subcutaneous, 4 to 10 weeks of age), “about 1.3 fold”. Also, the “Effect on disease-associated increase in muscle weight (FIG. 2(a))” value in assay [1] (gastrocnemius, quadriceps, tibialis anterior, heart) is given as “prevents an increase in muscle weight”. Besides, the “Reduction of hypertrophy (MW/TL) compared to vehicle-treated animals” value in assay [1] (heart muscle, 50 mg/kg/day subcutaneous, 4 to 10 weeks of age) is given as “about 1.2 fold”. The “Myofiber organization and fiber area distributions in histological slides” value in assay [2] is “Improvement in myofiber organization and normalization of fiber area distributions”. In assay [3], the “Effect on fibrotic areas (FIG. 2(c))” value is reported as “reduced fibrosis”. For the same substance, the “Fiber area distribution / heterogeneity” value in assay [4] (gastrocnemius), in assay [4] (quadriceps) and in assay [4] (tibialis anterior) was “normalized fiber area heterogeneity; also recorded: partially normalized” in each case. Also, in assay [4] (three skeletal muscles), the “Population of small fibers compared to vehicle-treated scgd−/− mice” value is “Less small fibers”.
As to cyclosporin A [CsA], in assay [5], the “Effect on muscle pathology” value was “deleterious”.
